Data taken from PubChem BioAssay (NCI).
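Dose response: 5 concentrations. Exposure: 48 h. Format: 96-well plates. Endpoint: linear interpolation; highest concentration if not reached. GI50 is the concentration that inhibits growth by half. TGI: concentration producing complete growth inhibition.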

What was measured:
Assay in all cases: inhibition of tumour cell growth, NCI panel, 48 h
[1] = tested on: SK-MEL-2 melanoma
[2] = tested on: DU-145 prostate
[3] = tested on: MDA-MB-435
[4] = tested on: A549 NSCLC
[5] = tested on: SN12C renal
[6] = tested on: SF-295 CNS
[7] = tested on: OVCAR-8 ovarian
[8] = tested on: M14 melanoma
[9] = tested on: TK-10 renal
[10] = tested on: COLO 205 colon
[11] = tested on: MOLT-4 leukemia
[12] = tested on: A498 renal
[13] = tested on: SNB-19 CNS
[14] = tested on: SK-MEL-5 melanoma
[15] = tested on: HCC-2998 colon
[16] = tested on: 786-0 renal
[17] = tested on: OVCAR-3 ovarian
[18] = tested on: UO-31 renal
[19] = tested on: CAKI-1 renal
[20] = tested on: BT-549 breast
[21] = tested on: SR leukemia
[22] = tested on: RXF 393 renal
[23] = tested on: MALME-3M melanoma
[24] = tested on: HOP-92 NSCLC
[25] = tested on: NCI-H522 lung
[26] = tested on: OVCAR-5 ovarian
[27] = tested on: HCT-116 colon
[28] = tested on: MCF7 breast
[29] = tested on: OVCAR-4 ovarian
[30] = tested on: HCT-15 colon
[31] = tested on: NCI-H226 lung
[32] = tested on: SW-620 colon
[33] = tested on: NCI-H460 lung
[34] = tested on: CCRF-CEM leukemia
[35] = tested on: KM12 colon
[36] = tested on: U251 CNS
[37] = tested on: K-562 leukemia
[38] = tested on: NCI/ADR-RES ovarian
[39] = tested on: MDA-MB-231 breast
[40] = tested on: SF-268 CNS
[41] = tested on: HT29 colon
[42] = tested on: EKVX NSCLC
[43] = tested on: HS 578T breast
[44] = tested on: HL-60(TB) leukemia
[45] = tested on: SK-MEL-28 melanoma
[46] = tested on: SF-539 CNS
[47] = tested on: PC-3 prostate
[48] = tested on: T-47D breast
[49] = tested on: SNB-75 CNS
[50] = tested on: UACC-62 melanoma
[51] = tested on: RPMI-8226 leukemia
[52] = tested on: ACHN renal
[53] = tested on: UACC-257 melanoma
[54] = tested on: LOX IMVI melanoma
[55] = tested on: NCI-H23 lung
[56] = tested on: IGROV1 ovarian
[57] = tested on: HOP-62 NSCLC

CCN1C(=O)N(CC)C2C1NN=c1s/c(=C\c3cccc([N+](=O)[O-])c3)c(=O)n12 (stereo unspecified)
GI50 [1]: 453 nM | TGI [1]: > 100000 nM | GI50 [2]: 101 nM | TGI [2]: > 100000 nM | GI50 [3]: 21.4 nM | TGI [3]: 50.4 nM | GI50 [4]: 181 nM | TGI [4]: > 100000 nM | GI50 [5]: 149 nM | TGI [5]: > 100000 nM | GI50 [6]: 42.3 nM | TGI [6]: > 100000 nM | GI50 [7]: 172 nM | TGI [7]: > 100000 nM | GI50 [8]: 53.3 nM | TGI [8]: > 100000 nM | GI50 [9]: > 100000 nM | TGI [9]: > 100000 nM | GI50 [10]: 66.3 nM | TGI [10]: 538 nM | GI50 [11]: 240 nM | TGI [11]: > 100000 nM | GI50 [12]: 25.4 nM | TGI [12]: 91.6 nM | GI50 [13]: 128 nM | TGI [13]: > 100000 nM | GI50 [14]: 51.1 nM | TGI [14]: 1170 nM | GI50 [15]: 229 nM | TGI [15]: > 100000 nM | GI50 [16]: 143 nM | TGI [16]: > 100000 nM | GI50 [17]: 57.5 nM | TGI [17]: 399 nM | GI50 [18]: 321 nM | TGI [18]: > 100000 nM | GI50 [19]: 52 nM | TGI [19]: > 100000 nM | GI50 [20]: 291 nM | TGI [20]: 33500 nM | GI50 [21]: 47.1 nM | TGI [21]: > 100000 nM | GI50 [22]: 70.8 nM | TGI [22]: > 100000 nM | GI50 [23]: 81.2 nM | TGI [23]: > 100000 nM | GI50 [24]: 4050 nM | TGI [24]: > 100000 nM | GI50 [25]: 42.7 nM | TGI [25]: 3400 nM | GI50 [26]: 324 nM | TGI [26]: > 100000 nM | GI50 [27]: 42.2 nM | TGI [27]: > 100000 nM | GI50 [28]: 36.6 nM | TGI [28]: > 100000 nM | GI50 [29]: 567 nM | TGI [29]: > 100000 nM | GI50 [30]: 48.6 nM | TGI [30]: > 100000 nM | GI50 [31]: 8250 nM | TGI [31]: > 100000 nM | GI50 [32]: 46.8 nM | TGI [32]: > 100000 nM | GI50 [33]: 49.1 nM | TGI [33]: > 100000 nM | GI50 [34]: 116 nM | TGI [34]: > 100000 nM | GI50 [35]: 40.4 nM | TGI [35]: > 100000 nM | GI50 [36]: 54.2 nM | TGI [36]: > 100000 nM | GI50 [37]: 41.1 nM | TGI [37]: > 100000 nM | GI50 [38]: 44.3 nM | TGI [38]: 703 nM | GI50 [39]: 231 nM | GI50 [40]: 293 nM | TGI [40]: > 100000 nM | GI50 [41]: 38.7 nM | TGI [41]: > 100000 nM | GI50 [42]: 382 nM | TGI [42]: > 100000 nM | GI50 [43]: 50.2 nM | TGI [43]: > 100000 nM | GI50 [44]: 49.6 nM | TGI [44]: 210 nM | TGI [45]: > 100000 nM | GI50 [46]: 39.7 nM | TGI [46]: 396 nM | GI50 [47]: 85.3 nM | TGI [47]: > 100000 nM | TGI [48]: > 100000 nM | GI50 [49]: 37.8 nM | TGI [49]: > 100000 nM | GI50 [50]: 53.9 nM | TGI [50]: > 100000 nM | GI50 [51]: 127 nM | TGI [51]: > 100000 nM | GI50 [52]: 66.2 nM | TGI [52]: > 100000 nM | GI50 [53]: > 100000 nM | TGI [53]: > 100000 nM | GI50 [54]: 56.8 nM | TGI [54]: > 100000 nM | GI50 [55]: 413 nM | TGI [55]: > 100000 nM | GI50 [56]: 162 nM | TGI [56]: > 100000 nM | GI50 [57]: 104 nM | TGI [57]: > 100000 nM
